Results from patent US11918570B2, “Method of treatment for prevention of glucocorticoid toxicity and/or enhancement of muscle regeneration via neutrophil elastase inhibition” (The Research Foundation for The State University of New York, priority 2020, dated 2024).
“Also recorded” adds a separate entry of the source.

Key:
[1] = tested on: dystrophin-deficient mice (mdx4cv strain); assay: Muscle mass: quadriceps wet weight and diaphragm cross-sectional area; assay type: in vivo, mouse; details: 12 weeks; for prednisolone-induced loss of muscle mass / muscle atrophy: in combination with prednisolone, FIGS. 15, 16; for muscle mass (quadriceps wet weight): single agent, FIG. 15
Description: FIG. 15 illustrates the wet weight of quadriceps muscle groups dissected from dystrophic mice at treatment start (baseline, Pre-Tr) or after the 12 week administration period, at the time of euthanasia.

[2] = tested on: dystrophin-deficient mice (mdx4cv strain); assay: Serum muscle creatine kinase (mCK) activity; assay type: in vivo, mouse; details: 12 weeks; FIG. 6
Description: FIG. 6 is a graphical illustration of muscle creatine kinase (mCK) activity for various cohorts of tested mice (including mice pre-treatment with any elastase inhibitor or glucocorticoid) at the conclusion of the 12 week administration period. FIG. 7 is a graphical illustration of MyoD protein levels for various cohorts of tested mice (including mice pre-treatment with any elastase inhibitor or glucocorticoid) at the conclusion of the 12 week administration period. FIG. 8 is a graphical illustration of liver pathology scores for various cohorts of tested mice (including mice pre-treatment, with any elastase inhibitor or glucocorticoid) at the conclusion of the 12 week administration period.

[3] = tested on: dystrophin-deficient mice (mdx4cv strain); assay: Inflammation transcripts in muscle by RNA sequencing; assay type: in vivo, mouse; details: elastase inhibitor alone, 12 weeks; FIGS. 11A, 11B
Description: In FIGS. 11A and 11B, mRNA was extracted from muscles of the mice, then transcripts were quantified using next generation sequencing. […] Mdx^4cv mice were treated for 12 weeks with either placebo (Plcb, gray boxes) or prednisolone (1 mg/Kg/day, cyan boxes) alone or in combination with the elastase inhibitor alvelestat (Alv) at two different doses (10 mg/Kg/day, pink boxes; 25 mg/Kg/day, purple boxes). Each box-and-whiskers graph represent the levels of a marker of the immune response detected by RNA sequencing (n=6 per treatment group, Y-axis scale on the left). The overlayed line graphs show the effect size of each treatment vs Plcb calculated and plotted as Cohen's d (Y-axis scale on the right). Significance of each treatment vs Plcb: ***=p<0.001, **=p<0.01, *=p<0.05.

[4] = tested on: dystrophin-deficient mice (mdx4cv strain); assay: Myofiber necrosis (mIgG uptake on immunostained cryosections); assay type: in vivo, mouse; details: 12 weeks, FIG. 10
Description: In FIG. 10, myofiber necrosis was measured by calculating the percentage of myofibers that uptake mouse immunoglobulins (mIgG) on immunostained cryosections. IgG are normally present only in the blood and the extracellular matrix within tissues, but are uptaken by necrotic cells that have permeable plasma membranes due to cell damage damage.

[5] = tested on: myoblasts from a mouse model of Duchenne muscular dystrophy (mdx4cv); assay: NE-induced myoblast death, mdx4cv mouse myoblasts treated with mouse NE; assay type: cell-based; details: FIG. 1E
Description: (§1) The number of live cells in each condition was counted and plotted as percentage of the number of live cells in the untreated (Control) condition.

[6] = tested on: dystrophin-deficient mice (mdx4cv strain); assay: 12-week oral treatment of mdx4cv mice, overall efficacy; assay type: in vivo, mouse; details: elastase inhibitor orally, concomitantly with oral prednisolone
Description: FIG. 1F is a graphical illustration of data gathered from in vivo testing efficacy of a placebo, as compared to the elastase inhibitor Alvelestat, alone at various administration concentrations, and in combination with the glucocorticoid prednisolone at various administration concentrations. In this, and the following figures, the abbreviation “Plcb” refers to administration of a placebo, the abbreviation “Pred” refers to administration of prednisolone at 1 mg/kg/day, the abbreviation “Alv10” refers to the administration of the elastase inhibitor alvelestat at 10 mg/kg/day, and the abbreviation “Alv25” refers to the administration of the elastase inhibitor alvelestat at 25 mg/kg/day.
The administration of the various compounds occurred over a 12-week period, in a controlled randomized, double blinded test using dystrophin-deficient mice (mdx4cv strain). In FIG. 1F, beginning during the tenth week of the test, the mice were exposed to an activity wheel, with the cumulative distance plotted on the y-axis and the number of days spent with the exercise wheel plotted on the x-axis.

[7] = tested on: dystrophin-deficient mice (mdx4cv strain); assay: Diaphragm strip tetanic force and residual force; assay type: in vivo, mouse
[8] = target: T1, Human NE (hNE) (Homo sapiens, UniProt P08246); assay: Human NE activity in vitro, cumulative elastase activity over time; assay type: biochemical; details: hNE incubated with various concentration of inhibitor; FIGS. 1A-1C
T1 sequence (P08246 30-267): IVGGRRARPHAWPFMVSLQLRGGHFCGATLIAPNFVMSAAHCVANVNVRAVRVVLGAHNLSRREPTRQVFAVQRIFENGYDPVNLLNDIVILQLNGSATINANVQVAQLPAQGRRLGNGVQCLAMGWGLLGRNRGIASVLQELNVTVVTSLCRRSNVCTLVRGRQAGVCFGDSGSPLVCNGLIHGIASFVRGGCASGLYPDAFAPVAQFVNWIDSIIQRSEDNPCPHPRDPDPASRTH
Description: In FIGS. 1A-1C Human NE (hNE) was incubated for the indicated amount of time (X-axis) either alone (Control, black line) or in the presence of various concentration of inhibitor, as indicated in each graph (colored lines). The cumulative elastase activity detected over time is plotted.
Several methods for measuring elastase enzymatic activity are known in the art. Merely by way of example, elastase activity can be determined by measuring the fluorescence emitted by a fluorigenic peptide such as MeOSuc-Ala-Ala-Pro-Val-AFC or Suc-Ala-Ala-Ala-AMC. Fluorescence may be measured, for example, using a plate reader. Other suitable assays for measuring elastase activity will be known to the skilled person. These may include measuring the product generated by incubation with a fluorescently labelled peptide such as 5-FAM-Arg-Glu-Ala-Val-Val-Tyr or 5-FAM-Ala-Ala-Ala-Phe-Tyr-Asp using an instrument that detects the size of the fluorescently labelled probe.

[9] = tested on: myoblasts isolated from a patient affected by Duchenne muscular dystrophy; assay: NE-induced myoblast death, DMD patient myoblasts treated with human NE; assay type: cell-based; details: for rescue of NE-induced myoblast death (number of live cells as percentage of untreated Control): DMD patient myoblasts treated with human NE, FIG. 1D; for effectiveness against human NE compared with mouse NE: comparison of FIG. 1D (hNE) and FIG. 1E (mNE)
Description: as §1

[10] = tested on: dystrophin-deficient mice (mdx4cv strain); assay: Muscle fibrosis, Sirius Red staining of gastrocnemius cryosections; assay type: in vivo, mouse; details: 12 weeks, FIG. 13
Description: FIG. 13 illustrates fibrosis levels of the various cohorts, assessed on cryosections of gastrocnemius muscles from the mice, which were stained with Sirius Red to detect fibrillar collagen. Untreated dystrophic mice were euthanized at the age when treatments start (Pre-tr) and used as baseline for disease progression. Images were analyzed for their fluorescence intensity (Sirius red emits fluorescence in the yellow-red band of the light spectrum) as a measure of collagen abundance per unit area (e.g. per pixel), which was multiplied by the total Sirius red+ area as a proxy for 3D evaluation of fibrillar collagen content.

SMILES	muscle mass (quadriceps wet weight) [1]	rescue of NE-induced myoblast death (number of live cells as percentage of untreated Control) [5]	inhibiting human NE activity in vitro [8]	rescue of NE-induced myoblast death (number of live cells as percentage of untreated Control) [9]	effectiveness against human NE compared with mouse NE [9]	also measured
Cc1c(-c2ccnn2C)cc(C(=O)NCc2ccc(S(C)(=O)=O)cn2)c(=O)n1-c1cccc(C(F)(F)F)c1 [Alvelestat]	increased it	similarly effective at blocking NE-induced myoblast death	similarly potent	similarly effective at rescuing NE-induced myoblast cell death; also recorded: similarly effective at blocking NE-induced myoblast death	most effective against human NE	prednisolone-induced loss of muscle mass / muscle atrophy [1]: partly rescued the prednisolone-induced loss of muscle mass in a dose-dependent manner that appears inversely correlated; prednisolone-induced loss of muscle mass / muscle atrophy ([1]; listed as AZD9668): reduces prednisolone induced muscle atrophy; serum mCK levels (muscle damage) [2]: lowers serum mCK levels; inflammation (immune response transcripts) [3]: does not significantly affect inflammation; myofiber necrosis ([4]; alvelestat alone, 10 and 25 mg/kg/day): decreases myofiber necrosis in a dose-dependent manner; also recorded: reduces necrosis; myofiber necrosis / myofiber stability ([4]; combined with prednisolone 1 mg/kg/day): additive affect on myofiber stability; prednisolone efficacy [6]: enhances prednisolone efficacy; diaphragm weakness (specific tetanic force, residual force) ([7]; alone and in combination with prednisolone, FIGS. 17-19): affects diaphragm weakness independent of muscle loss in a complex manner; muscle fibrosis ([10]; alone): decreases muscle fibrosis; prednisolone-induced fibrosis ([10]; in combination with prednisolone): prevents prednisolone-induced fibrosis
CC(=O)C1=C(C)N(c2cccc(C(F)(F)F)c2)C(=O)N[C@@H]1c1ccc(C#N)nc1 [BAY-678]	–	similarly effective at blocking NE-induced myoblast death	–	–	–	–
COc1cc(C(C)C)c2c(c1)S(=O)(=O)N(COc1cc(=O)n3cccc(OCCN4CCCCC4)c3n1)C2=O [SSR69071]	–	similarly effective at blocking NE-induced myoblast death	similarly potent	similarly effective at rescuing NE-induced myoblast cell death; also recorded: similarly effective at blocking NE-induced myoblast death	most effective against human NE	–
C[C@]12C=CC(=O)C=C1CC[C@@H]1[C@@H]2[C@@H](O)C[C@@]2(C)[C@H]1CC[C@]2(O)C(=O)CO [prednisolone]	dramatically decreased muscle mass	–	–	–	–	residual force at 15 seconds after peak force (percentage of the peak force) ([7]; diaphragm strips, 20 second tetanus, FIG. 19): decline in residual force, which is greater for prednisolone alone
